The structures appear in SMILES notation.

Series [1] is described as follows: Pheromone content of carnauba wax cubes after manufacture and 1 month storage (Soxhlet extraction, Gas Chromatography). Conditions: 12 mm carnauba wax cubes with 5 mg codlemone. It is filed as physicochemical. As to the method: Carnauba wax was melted in a pan on a hot plate at 105° C. and was poured into […] mould blocks. Theses were allowed to cool and were weighed, giving an average of 1.4 g per block. From this, it was calculated that 50 mg of codlemone should be added to every 14 g of molten carnauba wax to make ten […] cubes each containing 5 mg. These cubes were made using technical grade 99% pure Codlemone (E,E)-8,10-Dodecadien-1-ol (E8E10-120H) sourced from Bedoukian Research Inc., Danbury, Conn., US and the cubes were then cooled and stored in heat sealed aluminum sachets in a freezer for 1 month. They were then removed from the freezer and the pheromone was extracted from each cube by Soxhlet extraction with ethanol and analyzed by Gas Chromatography.

Series [2] can be described thus: Release from two phase 100% carnauba wax lures in Eppendorf tubes (entrainment system, GC/GC-MS, wind tunnel ageing). It counts as physicochemical. The conditions noted are these: two-layer carnauba wax; wind tunnel 5 km/h, 27° C.; retested over 20 days; FIG. 1. Here is the method: In this experiment Eppendorf tubes were filled with two layers of molten carnauba wax containing different concentrations of Codlemone (E,E)-8,10-Dodecadien-1-ol (E8E10-120H). […] In the lower part of the tube, 0.75 cm^3 of molten carnauba wax containing 5 mg of codlemone and the above compounds was poured in and allowed to solidify. The next step was to add a 0.25 cm^3 cap of molten carnauba wax with 1 mg of codlemone and the above compounds to the top of the solid wax. The concept behind this experiment was that the upper layer would reduce the initial surge of pheromone that is an unwanted characteristic of all known lures when opened for the first time. The hope was that by putting a low dose in the upper layer, the initial surge would be smaller and as the pheromone in this low dose layer disappeared it would be replaced by a steady flow of pheromone permeating through it from the higher concentration layer beneath.
The lures were formulated and immediately frozen and stored in impermeable aluminum sachets until they were placed into an entrainment system comprising a sealed glass sample chamber and an adsorbent tube filled with Porapak Q, obtained from Supelco, Bellefonte, Pa. Semiochemical(s) released over 2-hour intervals were transferred to the adsorbent by use of a vacuum pump, and eluted for GC/GC-MS analysis using dichloromethane. […]

For the compound `C/C=C/C=C/CCCCCCCO` [Codlemone, (E,E)-8,10-Dodecadien-1-ol], the “lost during manufacturing, storage for 1 month and analysis” value in series [1] came to 2.5%. For the same compound, the “initial loading remaining in the cubes” value in series [1] (average, stored in heat sealed aluminum sachets in a freezer for 1 month) came to 97.5%.

With `CCCCCCCCCCCCC` [Tridecane (13:HC), Tridecane], the “release rate of compounds from the Eppendorf wax lures” value in series [2] is “releases much more quickly than Decyl Acetate (10:Ac)”.

The values above are taken from patent US20090084024A1, “TRAP OR DISPENSER” (EXOSECT LIMITED, priority 2006, published 2009).
